{"source": "patent US9427458B2", "about": "“Methods for inhibiting cancer cell proliferation” (Consejo Nacional de Investigaciones Cientificas y Tecnicas, …, priority 2010, dated 2016)", "key": {"Stat3 [1]": {"system": "Stat3", "assay": "Stat3 phosphorylation and nuclear translocation in C4HD cells", "type": "cell-based, mouse", "protocol": "(§1) Lysates were prepared from cells subjected to the different treatments and proteins were subjected to SDS-PAGE as previously described (21). Membranes were immunoblotted with the antibodies detailed in each experiment. When phospho(p)-protein antibodies were used, filters were reprobed with total protein antibodies. Signal intensities of pErbB-2, pStat3, pSrc, pPR, pJak1, and pJak2 bands were analyzed by densitometry and normalized to total protein bands. Similarly, signal intensities of PR, cyclin D1, Stat3, and ErbB-2 bands were normalized to actin or β tubulin bands. […] The NEPER Nuclear and Cytoplasmic Extraction Reagents technique (Pierce Biotechnology) was performed as per manufacturer's instructions. Nuclear association between ErbB-2 and Stat3 was studied by performing coimmunoprecipitation experiments using 200 μg of nuclear protein lysates as described (22).\nsiRNAs targeting ErbB-2, Stat3, and Pr were synthesized by Dharmacon, Inc (Lafayatte, Colo.) (ErbB-2siRNA: 5′GAUGGUGCUUACUCAUUGA3′ (SEQ ID NO:8), designed to specifically knockdown mouse ErbB2 but not human ErbB-2; Stat3siRNA: 5′[…]3′ (SEQ ID NO:9) targets mouse Stat3; and 5′[…]3′ (SEQ ID NO:10) targets human Stat3; PRsiRNA: 5′[…]3′(SEQ ID NO:11)). […] Transfection of siRNAs duplexes was performed by using the DharmaFECT transfection reagent following the manufacturer's direction for 3 days. For reconstitution experiments cotransfection of 25 nM ErbB-2 siRNA with 2 μg expression vectors was performed using DharmaFECT Duo transfection reagent (Dharmacon).\n(§2) Cells grown on glass coverslips were fixed and permeabilized in ice-cold methanol and were then blocked with PBS 1% BSA. ErbB-2 was localized using either a rabbit polyclonal (C-18) or a mouse monoclonal (F-11) ErbB-2 antibody (Santa Cruz Biotechnology) and Stat3 was detected using a mouse monoclonal antibody (124H6, Cell Signaling), followed by incubation with a goat anti-rabbit IgG-Alexa 488 (Molecular Probes, Eugene, Oreg.) secondary antibody for ErbB-2 (C-18) and with a rhodamine conjugated goat anti-mouse secondary antibody (Jackson ImmunoResearch Laboratories, West Grove, Pa.) for both ErbB2 (F-11) and Stat3. Negative controls were carried out using PBS instead of primary antibodies, or 5× competitive peptide (Santa Cruz Biotechnology) when ErbB-2 (C-18) was used. When cells were transfected with hErbB-2ΔNLS, green fluorescent protein from this expression vector was visualized by direct fluorescence imaging. […] FIGS. 2A, 3B and C, illustrate a few cells representative of the ones examined. Cells were analyzed using a Nikon Eclipse E800 confocal laser microscopy system (22)."}, "cyclin D1": {"system": "cyclin D1", "assay": "Cyclin D1 protein levels by Western blot in C4HD cells", "type": "cell-based, mouse", "details": "C4HD cells preincubated or transfected, then MPA for 48 h", "protocol": "(§3) Primary cultures of epithelial cells from C4HD tumors were performed as described (2). T47D cells were obtained from American Type Culture Collection and T47D-Y cells were a generous gift from Dr. K. Horwitz (Denver, Colo.). To evaluate the effects of the pharmacological inhibitors on MPA-induced proteins phosphorylation or cyclin D1 expression, cells were preincubated for 90 min with RU486, PP2, Tyrphostin AG825 or Jak inhibitor I before addition of MPA. Cell proliferation was evaluated by [3H]-thymidine incorporation assay and cell cycle distribution was analyzed by flow cytometry, as described (22).\nas §1, with “Nuclear association between ErbB-2 and Stat3 was studied by performing coimmunoprecipitation experiments using 200 μg of nuclear protein lysates as described (22).” left out"}, "ErbB-2 [2]": {"system": "ErbB-2", "assay": "ErbB-2 cellular localization (subcellular fractionation/immunoblot, confocal microscopy) in T47D cells", "type": "cell-based, human", "details": "T47D cells pretreated with inhibitor before MPA", "protocol": "(§4) Lysates were prepared from cells subjected to the different treatments and proteins were subjected to SDS-PAGE as previously described (21). Membranes were immunoblotted with the antibodies detailed in each experiment. When phospho(p)-protein antibodies were used, filters were reprobed with total protein antibodies. Signal intensities of pErbB-2, pStat3, pSrc, pPR, pJak1, and pJak2 bands were analyzed by densitometry and normalized to total protein bands. Similarly, signal intensities of PR, cyclin D1, Stat3, and ErbB-2 bands were normalized to actin or β tubulin bands. […]\n(§5) Cells grown on glass coverslips were fixed and permeabilized in ice-cold methanol and were then blocked with PBS 1% BSA. ErbB-2 was localized using either a rabbit polyclonal (C-18) or a mouse monoclonal (F-11) ErbB-2 antibody (Santa Cruz Biotechnology) and Stat3 was detected using a mouse monoclonal antibody (124H6, Cell Signaling), followed by incubation with a goat anti-rabbit IgG-Alexa 488 (Molecular Probes, Eugene, Oreg.) secondary antibody for ErbB-2 (C-18) and with a rhodamine conjugated goat anti-mouse secondary antibody (Jackson ImmunoResearch Laboratories, West Grove, Pa.) for both ErbB2 (F-11) and Stat3. […] When cells were transfected with hErbB-2ΔNLS, green fluorescent protein from this expression vector was visualized by direct fluorescence imaging. […]"}, "ErbB-2 [3]": {"system": "ErbB-2", "assay": "ErbB-2 tyrosine phosphorylation by Western blot in T47D cells", "type": "cell-based, human", "details": "T47D cells preincubated with inhibitor before MPA", "protocol": "as §3, §1"}, "ErbB-2 [4]": {"system": "ErbB-2", "assay": "ErbB-2 cellular localization (subcellular fractionation/immunoblot, confocal microscopy) in C4HD cells", "type": "cell-based, mouse", "details": "C4HD cells pretreated with inhibitor before MPA", "protocol": "as §4, §5"}, "ErbB-2 [5]": {"system": "ErbB-2", "assay": "ErbB-2 tyrosine phosphorylation by Western blot in C4HD cells", "type": "cell-based, mouse", "details": "C4HD cells preincubated with inhibitor or transfected with siRNA before MPA", "protocol": "as §3\nas §1, with “Nuclear association between ErbB-2 and Stat3 was studied by performing coimmunoprecipitation experiments using 200 μg of nuclear protein lysates as described (22).” left out"}, "Stat3 [6]": {"system": "Stat3", "assay": "Stat3 phosphorylation and nuclear translocation in T47D cells", "type": "cell-based, human", "details": "T47D cells pretreated with inhibitor before MPA", "protocol": "as §1, §2"}}, "note": "Entries after “also recorded” stand apart in the source; their conditions may differ.", "data": [{"compound": "5′GAUGGUGCUUACUCAUUGA3′ (other strand missing, further chemistry not given here) [ErbB-2 siRNAs, siRNA designed to specifically knockdown mouse ErbB2 but not human ErbB-2]", "values": [{"measurement": "MPA-induced Stat3 phosphorylation", "setting": "Stat3 [1]; C4HD cells transfected with siRNAs to knock down mouse ErbB-2", "result": "inhibited"}]}, {"compound": "5′GGUCAAAUUUCCUGAGUUGUU3′ (other strand missing, further chemistry not given here) [Stat3 siRNAs, siRNA that targets mouse Stat3]", "values": [{"measurement": "MPA-induced cyclin D1 protein levels", "setting": "cyclin D1", "result": "abrogated"}]}, {"compound": "COc1cc(/C=C(\\C#N)C(N)=O)cc(CSc2nc3ccccc3s2)c1O", "note": "[AG825]", "values": [{"measurement": "MPA-induced ErbB-2 nuclear translocation", "setting": "ErbB-2 [2]", "result": "abrogated; also recorded: significantly inhibited"}, {"measurement": "MPA-induced Stat3 nuclear migration", "setting": "Stat3 [1]; C4HD cells pretreated with inhibitor before MPA", "result": "absolutely prevented"}, {"measurement": "MPA-induced ErbB-2 phosphorylation", "setting": "ErbB-2 [3]", "result": "prevented"}, {"measurement": "MPA-induced ErbB-2 nuclear translocation", "setting": "ErbB-2 [4]", "result": "abrogated; also recorded: significantly inhibited"}, {"measurement": "MPA-induced ErbB-2 phosphorylation", "setting": "ErbB-2 [5]", "result": "prevented"}, {"measurement": "MPA-induced Stat3 nuclear migration", "setting": "Stat3 [6]", "result": "absolutely prevented"}]}]}
